In patent US20250332173A1, “COMPOUNDS AND METHODS FOR MODULATING NUCLEIC ACID SPLICING” (REMIX THERAPEUTICS INC., priority 2021, published 2025):

Tests used:
[1] = tested on: Target C; test: RT-qPCR splicing assay panel, Target C canonical junction (CJ) mRNA; format: cell-based, human; details: Homo sapiens; Table 5 panel; canonical junction qPCR; compound concentration having 50% response in CJ decrease; read-out: Target C IC50 (decrease in CJ mRNA levels)
Procedure, shortened: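 K562/A673 cells, 11-pt 3-fold compound titration from 10 uM final, DMSO ≤0.25%, 24 h 37 °C 5% CO2; lyse (DNase I or Igepal/Tris buffer pH 7.4); RT-qPCR for CJ isoform vs housekeeping gene (GAPDH/GUSB/PPIA).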

[2] = tested on: HTT; test: HiBiT protein abundance assay, HTT HiBiT K562 cell line; format: cell-based, human; details: HiBiT K562 cell line, 24 hours, top dose 10 μM; read-out: Effect on protein abundance, HTT (IC50 category)
Procedure, shortened: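 Endogenous targets in K562 knock-in lines carried a HiBiT tag and were treated for 24 h at 37 °C with 10-point 3-fold dilutions (top 10 μM final, DMSO ≤0.25%). Abundance was read as lytic Nano-Glo HiBiT luminescence. IC50 came from a four-parameter logistic fit of normalized response.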

IC50 [1] [nM] | IC50 [2] [nM] | Compound
> 10000 | > 10000 | Cc1cn2cc(-c3cc(F)c4c(=O)n(C5CCNC6(CC6)C5)ccc4c3)c(O)c(C)c2n1 (centres unmarked) [Compound 421, 2-{4-azaspiro[2.5]octan-7-yl}-8-fluoro-6-{7-hydroxy-2,8-dimethylimidazo[1,2-a]pyridin-6-yl}isoquinolin-1-one]
< 100 | 100 to 1000 | Cc1cn2nc(-c3ccc4c(=O)n([C@H]5CCNC6(CC6)C5)ncc4c3)cc(C)c2n1 [Compound 369, 2-[(7S)-4-azaspiro[2.5]octan-7-yl]-6-{2,8-dimethylimidazo[1,2-b]pyridazin-6-yl}phthalazin-1-one]
< 100 | < 100 | Cc1cn2nc(-c3cc(O)c4c(=O)n(C5CCNCC5)ccc4c3)cc(C)c2n1 [Compound 391, 6-(2,8-dimethylimidazo[1,2-b]pyridazin-6-yl)-8-hydroxy-2-(piperidin-4-yl)isoquinolin-1(2H)-one]
1000 to 10000 | 1000 to 10000 | Cc1cc(-c2ccc3c(=O)n([C@@H]4CCNC[C@H]4F)ncc3c2)cc2cn(C)nc12 [Compound 378]
100 to 1000 | < 100 | Cc1cn2nc(-c3cc(F)c4c(=O)n(C5CCN(C)CC5)ccc4c3)cc(C)c2n1 [Compound 400, 6-(2,8-dimethylimidazo[1,2-b]pyridazin-6-yl)-8-fluoro-2-(1-methylpiperidin-4-yl)isoquinolin-1(2H)-one]
> 10000 | > 10000 | Cc1nc2c(F)cc(-c3cc(F)c4c(=O)n(C5CCNC6(CC6)C5)ccc4c3)cc2n1C (centres unmarked) [Compound 430, 8-fluoro-6-(4-fluoro-1,2-dimethyl-1H-benzo[d]imidazol-6-yl)-2-(4-azaspiro[2.5]octan-7-yl)isoquinolin-1(2H)-one]
> 10000 | > 10000 | Cn1cc2c(n1)CCN(c1ccc3c(=O)n(C4CCNCC4)ccc3c1)C2 [Compound 509, 6-{2-methyl-4H,6H,7H-pyrazolo[4,3-c]pyridin-5-yl}-2-(piperidin-4-yl)isoquinolin-1-one]
